The supplement of paper PMC11208160

Assay: recombinant barcode read abundance after kanamycin selection (control-corrected) (log10(CPM+1)); higher = more efficient recombination; sequences stand for … in AGTGCAGAGAAAATCGGCCAGTTTTCTCTGCCTGCAGTCCGCATGCCGT…ATTTATGCAGCGGACTGCCTTTCTCCCAAAGTGATAAACCGGACAGTATCATGGACCGGTTTTCCCGGTAATCCGTATTTGCAAGGTTGGTTTCACT; site = the 11-nt target
Procedure, shortened: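 IS621 bridge RNA target-binding loops were paired with targets in a pooled library tested in E. coli. After co-electroporation with a donor plasmid, cells were plated in two replicates on chloramphenicol/ampicillin LB agar (control) and on chloramphenicol/ampicillin/kanamycin carrying 0.1 mM IPTG. Barcodes at recombinant junctions were counted as counts per million, averaged and control-corrected to give recombination efficiency. Values are log10(CPM+1).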

Sequence	recombinant barcode read abundance (log10)
GAGGCCTCTTGGGTTCTAACCTGTTGCCAGG [GAGGCCTCTTG_LTGcore_CT_RTGcore_CC] (site GAGGCCTCTTG) (LTG core: CT, RTG core: CC)	0.236
GAGGCCTCTTGGGTTCTAACCTGTTGCCAGT [GAGGCCTCTTG_LTGcore_CT_RTGcore_AC] (site GAGGCCTCTTG) (LTG core: CT, RTG core: AC)	0.0794
GAGGCCTCTTGGGTTCTAACCTGTTGCCATA [GAGGCCTCTTG_LTGcore_CT_RTGcore_TA] (site GAGGCCTCTTG) (LTG core: CT, RTG core: TA)	0.267
GAGGCCTCTTGGGTTCTAACCTGTTGCCATC [GAGGCCTCTTG_LTGcore_CT_RTGcore_GA] (site GAGGCCTCTTG) (LTG core: CT, RTG core: GA)	0.252
GAGGCCTGTTGGGTTCTAACCTGTTGCCAAC [GAGGCCTCTTG_LTGcore_GT_RTGcore_GT] (site GAGGCCTCTTG) (LTG core: GT, RTG core: GT)	0.104
GAGGCCTTCTGGGTTCTAACCTGTTGCCAAG [GAGGCCTCTTG_LTGcore_TC_RTGcore_CT] (site GAGGCCTCTTG) (LTG core: TC, RTG core: CT)	0.0445
GAGGCCTTCTGGGTTCTAACCTGTTGCCAGA [GAGGCCTCTTG_LTGcore_TC_RTGcore_TC] (site GAGGCCTCTTG) (LTG core: TC, RTG core: TC)	0.104
GAGGCCTTGTGGGTTCTAACCTGTTGCCACA [GAGGCCTCTTG_LTGcore_TG_RTGcore_TG] (site GAGGCCTCTTG) (LTG core: TG, RTG core: TG)	0.014
GAGGCCTTTTGGGTTCTAACCTGTTGCCAAA [GAGGCCTCTTG_LTGcore_TT_RTGcore_TT] (site GAGGCCTCTTG) (LTG core: TT, RTG core: TT)	0.0543
GAGTCCAATTGGGTTCTAACCTGTTGCGTAT [GAGTCCACTAC_LTGcore_AT_RTGcore_AT] (site GAGTCCACTAC) (LTG core: AT, RTG core: AT)	0.0548
GAGTCCACATGGGTTCTAACCTGTTGCGTTG [GAGTCCACTAC_LTGcore_CA_RTGcore_CA] (site GAGTCCACTAC) (LTG core: CA, RTG core: CA)	0.022
GAGTCCACTTGGGTTCTAACCTGTTGCGTAA [GAGTCCACTAC_LTGcore_CT_RTGcore_TT] (site GAGTCCACTAC) (LTG core: CT, RTG core: TT)	0.027
GAGTCCAGGTGGGTTCTAACCTGTTGCGTAG [GAGTCCACTAC_LTGcore_GG_RTGcore_CT] (site GAGTCCACTAC) (LTG core: GG, RTG core: CT)	0.689
GAGTCCATGTGGGTTCTAACCTGTTGCGTCA [GAGTCCACTAC_LTGcore_TG_RTGcore_TG] (site GAGTCCACTAC) (LTG core: TG, RTG core: TG)	0.101
GAGTCCTCATGGGTTCTAACCTGTTGCCTTG [GAGTCCTCTAG_LTGcore_CA_RTGcore_CA] (site GAGTCCTCTAG) (LTG core: CA, RTG core: CA)	0.185
GAGTCCTCCTGGGTTCTAACCTGTTGCCTAG [GAGTCCTCTAG_LTGcore_CC_RTGcore_CT] (site GAGTCCTCTAG) (LTG core: CC, RTG core: CT)	0.191
GAGTCCTCGTGGGTTCTAACCTGTTGCCTCG [GAGTCCTCTAG_LTGcore_CG_RTGcore_CG] (site GAGTCCTCTAG) (LTG core: CG, RTG core: CG)	0.0506
GAGTCCTCTTGGGTTCTAACCTGTTGCCTAG [GAGTCCTCTAG_LTGcore_CT_RTGcore_CT] (site GAGTCCTCTAG) (LTG core: CT, RTG core: CT)	2.17
GAGTCCTCTTGGGTTCTAACCTGTTGCCTGA [GAGTCCTCTAG_LTGcore_CT_RTGcore_TC] (site GAGTCCTCTAG) (LTG core: CT, RTG core: TC)	1.3
GAGTCCTCTTGGGTTCTAACCTGTTGCCTTA [GAGTCCTCTAG_LTGcore_CT_RTGcore_TA] (site GAGTCCTCTAG) (LTG core: CT, RTG core: TA)	1.48
GAGTCCTCTTGGGTTCTAACCTGTTGCCTTC [GAGTCCTCTAG_LTGcore_CT_RTGcore_GA] (site GAGTCCTCTAG) (LTG core: CT, RTG core: GA)	1.24
GAGTCCTGCTGGGTTCTAACCTGTTGCCTGC [GAGTCCTCTAG_LTGcore_GC_RTGcore_GC] (site GAGTCCTCTAG) (LTG core: GC, RTG core: GC)	0.333
GAGTCCTGTTGGGTTCTAACCTGTTGCCTAC [GAGTCCTCTAG_LTGcore_GT_RTGcore_GT] (site GAGTCCTCTAG) (LTG core: GT, RTG core: GT)	0.0554

Sequence	recombinant barcode read abundance (log10)
GAGTCCTTATGGGTTCTAACCTGTTGCCTAG [GAGTCCTCTAG_LTGcore_TA_RTGcore_CT] (site GAGTCCTCTAG) (LTG core: TA, RTG core: CT)	0.414
GCGCGACACTGGGTTCTAACCTGTTGCTTGT [GCGCGACCTAA_LTGcore_AC_RTGcore_AC] (site GCGCGACCTAA) (LTG core: AC, RTG core: AC)	0.147
GCGCGACCATGGGTTCTAACCTGTTGCTTAG [GCGCGACCTAA_LTGcore_CA_RTGcore_CT] (site GCGCGACCTAA) (LTG core: CA, RTG core: CT)	0.422
GCGCGACCCTGGGTTCTAACCTGTTGCTTAG [GCGCGACCTAA_LTGcore_CC_RTGcore_CT] (site GCGCGACCTAA) (LTG core: CC, RTG core: CT)	0.907
GCGCGACCTTGGGTTCTAACCTGTTGCTTGC [GCGCGACCTAA_LTGcore_CT_RTGcore_GC] (site GCGCGACCTAA) (LTG core: CT, RTG core: GC)	0.0896
GCGCGACCTTGGGTTCTAACCTGTTGCTTGT [GCGCGACCTAA_LTGcore_CT_RTGcore_AC] (site GCGCGACCTAA) (LTG core: CT, RTG core: AC)	0.0798
GCGCGACCTTGGGTTCTAACCTGTTGCTTTC [GCGCGACCTAA_LTGcore_CT_RTGcore_GA] (site GCGCGACCTAA) (LTG core: CT, RTG core: GA)	0.07
GCGCGACGATGGGTTCTAACCTGTTGCTTAG [GCGCGACCTAA_LTGcore_GA_RTGcore_CT] (site GCGCGACCTAA) (LTG core: GA, RTG core: CT)	0.0201
GCGCGACGCTGGGTTCTAACCTGTTGCTTAG [GCGCGACCTAA_LTGcore_GC_RTGcore_CT] (site GCGCGACCTAA) (LTG core: GC, RTG core: CT)	0.0605
GCGCGACGGTGGGTTCTAACCTGTTGCTTAG [GCGCGACCTAA_LTGcore_GG_RTGcore_CT] (site GCGCGACCTAA) (LTG core: GG, RTG core: CT)	0.048
GCGGGACAATGGGTTCTAACCTGTTGCCTTT [GCGGGACCTAG_LTGcore_AA_RTGcore_AA] (site GCGGGACCTAG) (LTG core: AA, RTG core: AA)	0.119
GCGGGACAGTGGGTTCTAACCTGTTGCCTAG [GCGGGACCTAG_LTGcore_AG_RTGcore_CT] (site GCGGGACCTAG) (LTG core: AG, RTG core: CT)	0.28
GCGGGACCATGGGTTCTAACCTGTTGCCTAG [GCGGGACCTAG_LTGcore_CA_RTGcore_CT] (site GCGGGACCTAG) (LTG core: CA, RTG core: CT)	0.909
GCGGGACCTTGGGTTCTAACCTGTTGCCTCC [GCGGGACCTAG_LTGcore_CT_RTGcore_GG] (site GCGGGACCTAG) (LTG core: CT, RTG core: GG)	1.24
GCGGGACCTTGGGTTCTAACCTGTTGCCTCT [GCGGGACCTAG_LTGcore_CT_RTGcore_AG] (site GCGGGACCTAG) (LTG core: CT, RTG core: AG)	0.713
GCGGGACCTTGGGTTCTAACCTGTTGCCTGT [GCGGGACCTAG_LTGcore_CT_RTGcore_AC] (site GCGGGACCTAG) (LTG core: CT, RTG core: AC)	1.21
GCGGGACCTTGGGTTCTAACCTGTTGCCTTT [GCGGGACCTAG_LTGcore_CT_RTGcore_AA] (site GCGGGACCTAG) (LTG core: CT, RTG core: AA)	0.927
GCGGGACGCTGGGTTCTAACCTGTTGCCTAG [GCGGGACCTAG_LTGcore_GC_RTGcore_CT] (site GCGGGACCTAG) (LTG core: GC, RTG core: CT)	0.137
GCGGGACTATGGGTTCTAACCTGTTGCCTAG [GCGGGACCTAG_LTGcore_TA_RTGcore_CT] (site GCGGGACCTAG) (LTG core: TA, RTG core: CT)	0.11
GCGGGACTCTGGGTTCTAACCTGTTGCCTAG [GCGGGACCTAG_LTGcore_TC_RTGcore_CT] (site GCGGGACCTAG) (LTG core: TC, RTG core: CT)	0.467
GCGGGACTCTGGGTTCTAACCTGTTGCCTGA [GCGGGACCTAG_LTGcore_TC_RTGcore_TC] (site GCGGGACCTAG) (LTG core: TC, RTG core: TC)	0.135
GCGGGACTGTGGGTTCTAACCTGTTGCCTCA [GCGGGACCTAG_LTGcore_TG_RTGcore_TG] (site GCGGGACCTAG) (LTG core: TG, RTG core: TG)	0.226
